This note sets out measurements from ChEMBL document CHEMBL5150030, “Enhancing the Safety and Efficacy of PSMA-Based Small-Molecule Drug Conjugates by Linker Stabilization and Conjugation to Transthyretin Binding Ligand” (J Med Chem, 2022).

By IC50 is commonly meant the concentration that inhibits the measured activity by half. In general, Kd refers to the constant that tells how readily two partners part at equilibrium. High values mean a looser complex, low ones a tighter complex. As usually defined, the MTD is the highest dose tested that stayed within the study's limit of toxicity.

Data set [1] in a line: Toxicity in mouse assessed as reduction in body weight at 40 mg/kg,ip measured upto 21 days for every 3 days. The data set is classed as organism-based. As to conditions: in vivo, 504 h, time < 21 day.
Data set [2] in a line: Toxicity in mouse xenografted with human LNCaP cells assessed as change in body weight at 10 mg/kg,ip administrated upto 35 days for every 5 days. The data set is classed as organism-based. The note with it: in vivo, 840 h, time < 35 day.
Data set [3] is described as follows: Toxicity in mouse assessed as reduction in body weight at 20 mg/kg,ip measured for 21 days by every 3 days. The data set is classed as organism-based. The note with it: in vivo, 504 h, time 21 day.
Data set [4] in a line: Toxicity in CD-1 mouse assessed as body weight loss at 0.4 mg/kg,ip administrated upto 20 days for every 5 days. The format is organism-based. The note with it: in vivo, 480 h, time < 20 day.
In data set [5] the test system is HeLa. Put plainly: Cytotoxicity against human HeLa cells assessed as reduction in cell viability incubated for 72 hrs by CellTiter-96 assay. The data set is classed as functional, cell-based.
The test system of data set [6] is DU-145. Put plainly: Cytotoxicity against human DU-145 cells assessed as reduction in cell viability incubated for 72 hrs in presence of TTR by CellTiter-96 assay. As to conditions: DU-145, 72 h. The format is functional, cell-based.
Data set [7] deals with LNCaP. As to the kind of experiment: Cytotoxicity against human LNCaP cells assessed as reduction in cell viability incubated for 72 hrs in presence of TTR by CellTiter-96 assay. The format is functional, cell-based.
The subject of data set [8] is LNCaP. As to the kind of experiment: Cytotoxicity against human LNCaP cells assessed as reduction in cell viability incubated for 72 hrs by CellTiter-96 assay. The format is functional, cell-based.
In data set [9] the test system is DU-145. Put plainly: Cytotoxicity against human DU-145 cells assessed as reduction in cell viability incubated for 72 hrs by CellTiter-96 assay. The note with it: DU-145, 72 h. The data set is classed as functional, cell-based.
In data set [10] the test system is HeLa. As to the kind of experiment: Cytotoxicity against human HeLa cells assessed as reduction in cell viability incubated for 72 hrs in presence of TTR by CellTiter-96 assay. The format is functional, cell-based.
The target of data set [11] is T1, Transthyretin (Homo sapiens, UniProt P02766). As to the kind of experiment: Binding affinity to human TTR incubated for 20 mins by fluorescence polarization assay.
Data set [12] has as its target T1, Transthyretin. Put plainly: Binding affinity to human serum TTR assessed as target occupancy incubated for 6 hrs by fluorescence polarization assay. For orientation: Fluorescence polarisation rises when a labelled molecule tumbles more slowly, as on binding a larger partner.
The nature of data set [13]: Toxicity in mouse assessed as increase in body weight at 6.2 mg/kg,ip measured upto 21 days for every 3 days. The data set is classed as organism-based. The note with it: in vivo, 504 h, time < 21 day.
Data set [14] is described as follows: Toxicity in CD-1 mouse assessed as body weight loss at 2.5 mg/kg,ip administrated upto 20 days for every 5 days. The format is organism-based. As to conditions: in vivo, 480 h, time < 20 day.
Data set [15] in a line: Stability of compound in PBS at 37 degreeC incubated for 24 hrs by RP-HPLC analysis. The data set is classed as physicochemical. The note with it: buffer.
The nature of data set [16]: Stability of compound in mouse serum at 37 degreeC incubated for 24 hrs by RP-HPLC analysis. The data set is classed as ADME, cell-free. As to conditions: read-out: Stability.
Data set [17] is described as follows: Toxicity in mouse assessed as maximum tolerated dose administered intraperitoneally measured upto 21 days for every 3 days. The note with it: in vivo, route ip, time < 21 day.
Data set [18] in a line: Drug metabolism in human liver assessed as cathepsin B mediated hydrolysis MMAE metabolite formation measured after 15 mins by HPLC/LC-MS/MS analysis. The format is ADME, tissue-based. As to conditions: 0.25 h.
The nature of data set [19]: Stability of compound in human serum at 37 degreeC incubated for 24 hrs by RP-HPLC analysis. The format is ADME, cell-free.
Data set [20] can be described thus: Drug concentration in CD-1 mouse at 2.5 mg/kg,ip measured upto 24 hrs by LC-MS/MS analysis. The format is ADME, organism-based. As to conditions: in vivo.
Data set [21] in a line: Toxicity in mouse xenografted with human LNCaP cells assessed as mouse survival time at 3.1 mg/kg,ip administrated upto 35 days for every 5 days. The format is organism-based. The note with it: in vivo, 840 h, time < 35 day. Background: A xenograft is tissue or cells of one species grown in another, often human tumour cells in immunodeficient mice.
Data set [22] relates to LNCaP. Put plainly: Antitumor activity against human LNCaP cells xenografted mouse assessed as reduction in tumor growth at 3.1 mg/kg,ip administrated upto 35 days for every 5 days. The data set is classed as functional, organism-based. As to conditions: time <= 35.0 day.
The nature of data set [23]: Toxicity in CD-1 mouse assessed as body weight loss at 3.1 mg/kg,ip administrated upto 20 days for every 5 days. The note with it: in vivo, 480 h, time < 20 day. The format is organism-based.
Data set [24] can be described thus: Drug metabolism in human liver assessed as cathepsin B mediated hydrolysis MMAE metabolite formation measured after 30 mins by HPLC/LC-MS/MS analysis. The data set is classed as ADME, tissue-based. As to conditions: 0.5 h.
The nature of data set [25]: Drug concentration in CD-1 mouse at 3 mg/kg,ip measured upto 24 hrs by LC-MS/MS analysis. The data set is classed as ADME, organism-based. As to conditions: in vivo.
Data set [26] addresses Transthyretin (Mus musculus) (UniProt P07309). Put plainly: Binding affinity to mouse serum TTR assessed as target occupancy incubated for 1 hrs by fluorescence polarization assay.
Data set [27] can be described thus: Toxicity in mouse xenografted with human LNCaP cells assessed as increase in body weight at 3.1 mg/kg,ip administrated upto 35 days for every 5 days. The data set is classed as organism-based. The note with it: in vivo, 840 h, time < 35 day.
In data set [28] the test system is LNCaP. As to the kind of experiment: Antitumor activity against human LNCaP cells xenografted mouse assessed as reduction in tumor relapse at 3.1 mg/kg,ip administrated upto 35 days for every 5 days. The format is functional, organism-based. The note with it: time <= 35.0 day.

The structures appear in SMILES notation. Activity calls are given as the source filed them. The rule behind the calls is not given here. Square brackets hold non-standard residues; d marks the D form. Peptide text beside a SMILES is read from it. * marks the point of attachment. Dolaproine = CO[C@@H]([C@@H]1CCCN1)[C@@H](C)C(=O)O; Dil = CC[C@H](C)[C@H](NC)[C@@H](CC(=O)O)OC; X1 = C[C@@H](N*)[C@@H](O)c1ccccc1; NMeV = CN[C@H](C(=O)O)C(C)C

In the case of `CC(=O)O[C@@]12CO[C@@H]1C[C@H](O)[C@@]1(C)C(=O)[C@H](O)C3=C(C)[C@@H](OC(=O)[C@H](O)[C@@H](NC(=O)OC(C)(C)C)c4ccccc4)C[C@@](O)([C@@H](OC(=O)c4ccccc4)[C@H]21)C3(C)C` [DOCETAXEL ANHYDROUS], the Activity result is recorded as “Toxic” in [1], “Non-Toxic” in data set [2] and “Toxic” in [3].
As to `CC[C@H](C)[C@@H]([C@@H](CC(=O)N1CCC[C@H]1[C@H](OC)[C@@H](C)C(=O)N[C@H](C)[C@@H](O)c1ccccc1)OC)N(C)C(=O)[C@@H](NC(=O)[C@@H](NC)C(C)C)C(C)C` (H-[NMeV]V[Dil][Dolaproine]-X1), the Activity entry in data set [4] is “Toxic”. For the same compound, the IC50 in data set [5] came out at 1.1 nM; in data set [6], 0.62 nM; in [7], 0.71 nM; in data set [8], 0.79 nM; in data set [9], 0.55 nM; in data set [10] it was 1 nM.
As to `Cc1n[nH]c(C)c1CCCOc1cc(OCCCCCCNCCOCCOCCN=[N+]=[N-])cc(C(=O)O)c1`, binding in data set [11] was characterised by a dissociation constant (Kd) of 74.3 nM. Besides, in [12], the Activity came to 80.7%.
For the compound `C#CCC(NC(=O)CCSC1CC(=O)N(CCCCCC(=O)N[C@@H](CCC(=O)O)C(=O)N[C@H](C(=O)N[C@@H](CCCNC(N)=O)C(=O)Nc2ccc(COC(=O)N(C)[C@H](C(=O)N[C@H](C(=O)N(C)[C@@H]([C@@H](C)CC)[C@@H](CC(=O)N3CCC[C@H]3[C@H](OC)[C@@H](C)C(=O)N[C@H](C)[C@@H](O)c3ccccc3)OC)C(C)C)C(C)C)cc2)C(C)C)C1=O)C(=O)NCCCCCC(=O)NCCCC[C@H](NC(=O)N[C@@H](CCC(=O)O)C(=O)O)C(=O)O` (some centres not stated), the values for the Activity result in [13] and in [14] were “Toxic” and “Non-Toxic”, respectively. In addition, the Stability result in data set [15] and in [19] was “Stable” each time. In [16], the remaining at 24 h was found to be 64.1%. Moreover, the MTD at 504 h in data set [17] was 5 mg/kg. The Drug metabolism result in [18] is reported as “Metabolite_Detected”. In addition, the IC50 was found to be 551 nM in data set [5]; 1020 nM in data set [6]; 0.81 nM in data set [7]; 0.83 nM in data set [8]; 1050 nM in [9]; 525 nM in data set [10]. For the same compound, the Drug uptake result in data set [20] is “Active”.
Turning to `CC[C@H](C)[C@@H]([C@@H](CC(=O)N1CCC[C@H]1[C@H](OC)[C@@H](C)C(=O)N[C@H](C)[C@@H](O)c1ccccc1)OC)N(C)C(=O)[C@@H](NC(=O)[C@H](C(C)C)N(C)C(=O)OCc1ccc(NC(=O)[C@H](CCCNC(N)=O)NC(=O)[C@@H](NC(=O)[C@H](CCC(=O)O)NC(=O)CCCCCN2C(=O)CC(SCCC(=O)NC(Cc3cn(CCOCCOCCNCCCCCCOc4cc(OCCCc5c(C)n[nH]c5C)cc(C(=O)O)c4)nn3)C(=O)NCCCCCC(=O)NCCCC[C@H](NC(=O)N[C@@H](CCC(=O)O)C(=O)O)C(=O)O)C2=O)C(C)C)cc1)C(C)C` (some centres not stated), in data set [21], the Survival is 100 days. The Stability entry in data set [15] and in [19] was “Stable” each time. Moreover, the result in data set [22], in data set [26] and in [28] was Active. Further, in [16], the remaining at 24 h is 71.3%. Also, in [17], the maximum tolerated dose (MTD) at 504 h was found to be 3.1 mg/kg. The Activity result in [23] is “Non-Toxic”; in data set [27], “Toxic”; in [12], 67.5%. The Drug metabolism result in [24] was “Metabolite_Detected”. This compound also came in with a Kd in data set [11] of 448 nM. For the same compound, the concentration for half-maximal inhibition (IC50) in data set [5] turned out to be 259 nM; in data set [6] it was 1250 nM; in data set [7], 1.19 nM; in [8] it was 1.02 nM; in data set [9] it was 421 nM; in data set [10], 816 nM. Further, in data set [25], the Drug uptake entry was “Active”.
On to `O=C(O)c1ccc2nc(-c3cc(Cl)cc(Cl)c3)oc2c1`, for which the Activity in [12] worked out at 49.5%.
